Source: ChEMBL document CHEMBL3102801, “Synthesis and antiproliferative activity of new derivatives containing the polycyclic system 5,7:7,13-dimethanopyrazolo[3,4-b]pyrazolo[3',4':2,3]azepino[4,5-f]azocine” (Eur J Med Chem, 2014)
Active and inactive are the calls of the source. The rule behind the calls is not given here.

What was measured:
TK-10 = assay: Growth inhibition of human TK10 cells after 48 hrs by sulforhodamine B assay; assay type: functional; details: TK-10, 48 h
[1] = Therapeutic index, ratio of IC50 for human HeDe cells to IC50 for human HCT116 cells; assay type: cell-based, HCT-116; details: HeDe cells versus HCT116 cells, read-out: TI
SN12C = assay: Growth inhibition of human SN12C cells after 48 hrs by sulforhodamine B assay; assay type: functional
[2] = Growth inhibition of human HCC2998 cells after 48 hrs by sulforhodamine B assay; assay type: functional; details: HCC 2998, 48 h
HOP-62 = assay: Growth inhibition of human HOP62 cells after 48 hrs by sulforhodamine B assay; assay type: functional; details: HOP-62, 48 h
MDA-MB-231 [3] = assay: Cell cycle arrest in human MDA-MB-231 cells assessed as accumulation of G0-G1 phase at 10 uM after 48 hrs using propidium iodide staining by flow cytometric analysis (reference value: 42.2%); assay type: functional
SK-MEL-2 = assay: Growth inhibition of human SK-MEL-2 cells after 48 hrs by sulforhodamine B assay; assay type: functional; details: SK-MEL-2, 48 h
786-0 = assay: Growth inhibition of human 786-0 cells after 48 hrs by sulforhodamine B assay; assay type: functional; details: 786-0, 48 h
SK-MEL-5 = assay: Growth inhibition of human SK-MEL-5 cells after 48 hrs by sulforhodamine B assay; assay type: functional; details: SK-MEL-5, 48 h
MDA-MB-231 [4] = assay: Cell cycle arrest in human MDA-MB-231 cells assessed as accumulation of G2-M phase at 10 uM after 48 hrs using propidium iodide staining by flow cytometric analysis (reference value: 27.5%); assay type: functional
[5] = Growth inhibition of human NCI-ADR-RES cells after 48 hrs by sulforhodamine B assay; assay type: functional
MCF7 = assay: Growth inhibition of human MCF7 cells after 48 hrs by sulforhodamine B assay; assay type: functional; details: MCF7, 48 h
MDA-MB-231 [6] = assay: Cell cycle arrest in human MDA-MB-231 cells assessed as accumulation of G2-M phase at 5 uM after 48 hrs using propidium iodide staining by flow cytometric analysis (reference value: 27.5%); assay type: functional
LOX IMVI = assay: Growth inhibition of human LOXIMVI cells after 48 hrs by sulforhodamine B assay; assay type: functional
MDA-MB-468 = assay: Growth inhibition of human MDA-MB-468 cells after 48 hrs by sulforhodamine B assay; assay type: functional; details: MDA-MB-468, 48 h
K562 = assay: Growth inhibition of human K562 cells after 48 hrs by sulforhodamine B assay; assay type: functional; details: K562, 48 h
RPMI-8226 = assay: Growth inhibition of human RPMI8226 cells after 48 hrs by sulforhodamine B assay; assay type: functional; details: RPMI-8226, 48 h
[7] = Growth inhibition of human OVCAR4 cells after 48 hrs by sulforhodamine B assay; assay type: functional; details: OVCAR-4, 48 h
A498 = assay: Growth inhibition of human A498 cells after 48 hrs by sulforhodamine B assay; assay type: functional; details: A498, 48 h
UACC-62 = assay: Growth inhibition of human UACC62 cells after 48 hrs by sulforhodamine B assay; assay type: functional; details: UACC-62, 48 h
[8] = Growth inhibition of human UO31 cells after 48 hrs by sulforhodamine B assay; assay type: functional; details: UO-31, 48 h
MOLT-4 = assay: Growth inhibition of human MOLT4 cells after 48 hrs by sulforhodamine B assay; assay type: functional; details: MOLT-4, 48 h
SR = assay: Growth inhibition of human SR cells after 48 hrs by sulforhodamine B assay; assay type: functional
[9] = Growth inhibition of human OVCAR5 cells after 48 hrs by sulforhodamine B assay; assay type: functional; details: OVCAR-5, 48 h
DU-145 = assay: Growth inhibition of human DU145 cells after 48 hrs by sulforhodamine B assay; assay type: functional; details: DU-145, 48 h
[10] = Growth inhibition of human Hs 578T cells after 48 hrs by sulforhodamine B assay; assay type: functional
[11] = Growth inhibition of human UACC257 cells after 48 hrs by sulforhodamine B assay; assay type: functional; details: UACC-257, 48 h
BT-549 = assay: Growth inhibition of human BT549 cells after 48 hrs by sulforhodamine B assay; assay type: functional; details: BT-549, 48 h
[12] = target: T1, Retinoblastoma-associated protein (Homo sapiens) (UniProt P06400); assay: Inhibition of pRb p110 phosphorylation in human HCT116 cells at 5 to 10 uM after 48 hrs by Western blotting relative to unphosphorylated p105; assay type: cell-based; details: HCT-116
T1 sequence (whole entry): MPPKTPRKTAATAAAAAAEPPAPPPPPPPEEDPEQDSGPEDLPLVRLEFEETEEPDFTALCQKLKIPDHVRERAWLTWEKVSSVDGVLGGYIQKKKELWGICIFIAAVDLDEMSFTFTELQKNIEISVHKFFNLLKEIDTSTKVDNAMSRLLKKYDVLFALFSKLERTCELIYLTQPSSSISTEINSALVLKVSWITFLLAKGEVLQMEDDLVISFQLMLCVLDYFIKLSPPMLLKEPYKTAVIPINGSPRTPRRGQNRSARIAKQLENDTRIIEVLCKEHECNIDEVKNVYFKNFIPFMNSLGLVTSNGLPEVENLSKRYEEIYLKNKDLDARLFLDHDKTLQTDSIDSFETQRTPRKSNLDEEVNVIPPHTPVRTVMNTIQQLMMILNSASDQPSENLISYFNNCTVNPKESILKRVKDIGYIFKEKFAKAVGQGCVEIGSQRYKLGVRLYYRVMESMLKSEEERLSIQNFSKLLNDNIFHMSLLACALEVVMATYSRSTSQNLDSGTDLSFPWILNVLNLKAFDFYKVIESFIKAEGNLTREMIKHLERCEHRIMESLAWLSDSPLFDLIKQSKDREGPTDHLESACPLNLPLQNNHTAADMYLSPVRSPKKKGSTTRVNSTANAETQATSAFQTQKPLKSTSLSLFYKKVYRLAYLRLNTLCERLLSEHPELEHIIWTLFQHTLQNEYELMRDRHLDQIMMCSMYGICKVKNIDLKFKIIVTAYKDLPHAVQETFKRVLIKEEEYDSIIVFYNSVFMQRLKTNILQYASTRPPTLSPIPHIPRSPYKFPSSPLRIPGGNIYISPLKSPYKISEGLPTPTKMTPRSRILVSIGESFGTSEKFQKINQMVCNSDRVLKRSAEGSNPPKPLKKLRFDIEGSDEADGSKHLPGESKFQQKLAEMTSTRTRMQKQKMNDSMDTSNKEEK

HCT-116 = assay: Cell cycle arrest in human HCT116 cells assessed as accumulation of G2-M phase at 5 uM after 48 hrs using propidium iodide staining by flow cytometric analysis (reference value: 19.2%); assay type: functional
HL-60(TB) = assay: Growth inhibition of human HL-60(TB) cells after 48 hrs by sulforhodamine B assay; assay type: functional; details: HL-60, 48 h
SW-620 = assay: Growth inhibition of human SW620 cells after 48 hrs by sulforhodamine B assay; assay type: functional; details: SW-620, 48 h
HCT-15 = assay: Growth inhibition of human HCT15 cells after 48 hrs by sulforhodamine B assay; assay type: functional; details: HCT-15, 48 h
SNB-19 = assay: Growth inhibition of human SNB19 cells after 48 hrs by sulforhodamine B assay; assay type: functional; details: SNB-19, 48 h

C=C1c2c(C)nn(-c3ccc(OC)cc3)c2N(C)C23CC1C1(C)c4c(C)nn(-c5ccc(OC)cc5)c4N(C)C(C)(CC12)C3 (centres undefined)
GI50 (TK-10): 3.63 µM
selectivity ratio [1]: 26.9
GI50 (SN12C): 3.65 µM
GI50 [2]: 4.07 µM
GI50 (HOP-62): 4.28 µM
Activity (MDA-MB-231 [3]): 58.2%
GI50 (SK-MEL-2): 3.23 µM
GI50 (786-0): 4.23 µM
GI50 (SK-MEL-5): 1.73 µM
Activity (MDA-MB-231 [4]): 17.8%
GI50 [5]: 4.04 µM
GI50 (MCF7): 2.69 µM
Activity (MDA-MB-231 [6]): 18.6%
GI50 (LOX IMVI): 2.24 µM
GI50 (MDA-MB-468): 2.5 µM
GI50 (K562): 3.6 µM
GI50 (RPMI-8226): 1.87 µM
GI50 [7]: 3.56 µM
GI50 (A498): 2.47 µM
GI50 (UACC-62): 2.86 µM
GI50 [8]: 2.61 µM
GI50 (MOLT-4): 2.6 µM
GI50 (SR): 3.16 µM
GI50 [9]: 11.3 µM
GI50 (DU-145): 4.38 µM
GI50 [10]: 6.24 µM
GI50 [11]: 2.68 µM
GI50 (BT-549): 3.1 µM
inhibition [12]: Active
Activity (HCT-116): 12.3%
GI50 (HL-60(TB)): 2.54 µM
GI50 (SW-620): 3.63 µM
GI50 (HCT-15): 3.11 µM
GI50 (SNB-19): 4.34 µM
